Numbers after ± are expanded uncertainties.
Conditions: Liquid, Closed cell (Static) method

SMILES | vapor or sublimation pressure (303.15 K) [kPa] | vapor or sublimation pressure (323.15 K) [kPa] | vapor or sublimation pressure (343.15 K) [kPa] | vapor or sublimation pressure (363.15 K) [kPa] | vapor or sublimation pressure (373.15 K) [kPa]
FC(F)CC(F)(F)F [1,1,1,3,3-pentafluoropropane] | 177.8 ± 1.1 | 344.7 ± 1.2 | 610.2 ± 1.5 | 1006.7 ± 2 | 1266.2 ± 2.4
CCCC [butane] | 283.7 ± 1.1 | 496.2 ± 1.2 | 809.8 ± 1.5 | 1249.8 ± 2.1 | 1526.8 ± 2.4
